Laboratory results as given in the NIST ThermoML archive (doi:10.1016/j.jct.2009.03.005).

Experiment: wn = mass fraction of the nth substance listed
Settings: 298.15 K, 101 kPa, Liquid; for viscosity: Capillary tube (Ostwald / Ubbelohde) method; for mass density: Pycnometric method

C[S+](C)[O-] [dimethyl sulfoxide] + CC#N
Settings | mass density [kg/m3] | viscosity [mPa·s]
w1 = 0.2 | 829.3 | 0.4196
w1 = 0.4 | 883.3 | 0.5249
w1 = 0.6 | 945.6 | 0.7147
